Laboratory results published in US12152038B2, “Vasopressin receptor antagonists and products and methods related thereto” (Neumora Therapeutics, Inc., priority 2017, dated 2024).
Structures can show the parent of a compound that is named as a salt.

Target: T1, human Arginine Vasopressin Receptor 1a (AVPR1a) (Homo sapiens, UniProt P37288)
T1 construct: expressed in transfected cells; host or cells: CHO (CHO-AVPR1a, kept under G418 selection)
Experiment: Vasopressin V1a receptor antagonist assay (FLIPR calcium, CHO-AVPR1a cells)
Format: cell-based
Protocol: The purpose of this assay was to determine the inhibitory effect of synthesized compounds on the Vasopressin V1a receptor. The assay was performed in Chinese Hamster Ovary (CHO) cells expressing the human Arginine Vasopressin Receptor 1a (AVPR1a). Arginine Vasopressin (AVP) evokes an increase in intracellular calcium in CHO-AVPR1a cells which is measured in a fluorescence assay on the FLIPR^TETRA using calcium sensitive dyes. Test compounds were assessed for their ability to affect the magnitude of the response to AVP, with antagonists showing a concentration-dependent reduction in the AVP-mediated fluorescence. Compounds were tested in duplicate in a 10-point, 1:3 dilution series starting at a nominal concentration of 3 μM in the assay.
CHO-AVPR1a cells were maintained in routine culture in T175 Flasks at 37° C., 5% CO2. The growth medium consists of Ham's F12 media supplemented with 10% v/v fetal bovine serum, 1× non-essential amino acids, and 0.4 mg/ml Geneticin G418.
On day one, cells were harvested from T175 flasks when they are 80-90% confluent by first washing the cell monolayer with PBS and then dissociated using trypsin 0.05%/EDTA (3 mL for a T175 Flask). The flasks were incubated at room temperature until the cells detached. To the cell suspension, 10 ml of growth media was added and the cell density determined using the Vi-Cell automated cell counter. The cells were spun at 1000 rpm for 3 minutes, then the supernatant was carefully removed and discarded. The cell pellet was re-suspended at 6.0e^5 cells/ml in growth media. 25 μL of cells in growth media was dispensed into each well (15,000 cells per well) of a poly-D-lysine coated black, clear bottomed, 384-well plate. The plates were incubated at 37° C., 5% CO2 overnight.
At the start of each assay day, the potency of AVP was assessed and an EC80 concentration determined for subsequent compound profiling. Assays were performed using a two-step addition protocol on the FLIPR^TETRA; first addition of 5 μl of control or test compound at 10× final in assay buffer with 15 min incubation at 37° C., 5% CO2 followed by 10 μl of AVP at 6× final concentration in assay buffer. Changes in fluorescence were monitored for 3 min after both additions on the FLIPR^TETRA using 470-495 nm excitation and 515-575 nm emission wavelengths. The assay buffer consisted of HBSS (+Ca/+Mg) supplemented with 20 mM HEPES, and for the preparation of the AVP agonist only, 0.1% w/v bovine serum albumin. The assay was initiated by the removal of growth media from the cells and replacement with 45 μl of Calcium-6 dye (Molecular Devices) prepared at 1× in assay buffer. Cells were loaded with dye for 60-90 min at 37° C., 5% CO2 before initiation of the FLIPR^TETRA protocol. […] For compound profiling, test compounds were first serially diluted in DMSO (10-point curve, 1:3 dilutions) then diluted 33.3-fold in assay buffer prior to addition to the dye loaded cells on the FLIPR^TETRA. At the end of the incubation period, 10 μl of AVP in assay buffer containing 0.1% BSA was added at the previously determined EC80 concentration.
In-plate controls for the assay included balovaptan and PF-184563 concentration-response curves as reference V1a antagonists, and an AVP concentration-response curve to confirm the reproducibility of the EC80 used for the compound challenge.

T1 sequence (P37288 whole entry): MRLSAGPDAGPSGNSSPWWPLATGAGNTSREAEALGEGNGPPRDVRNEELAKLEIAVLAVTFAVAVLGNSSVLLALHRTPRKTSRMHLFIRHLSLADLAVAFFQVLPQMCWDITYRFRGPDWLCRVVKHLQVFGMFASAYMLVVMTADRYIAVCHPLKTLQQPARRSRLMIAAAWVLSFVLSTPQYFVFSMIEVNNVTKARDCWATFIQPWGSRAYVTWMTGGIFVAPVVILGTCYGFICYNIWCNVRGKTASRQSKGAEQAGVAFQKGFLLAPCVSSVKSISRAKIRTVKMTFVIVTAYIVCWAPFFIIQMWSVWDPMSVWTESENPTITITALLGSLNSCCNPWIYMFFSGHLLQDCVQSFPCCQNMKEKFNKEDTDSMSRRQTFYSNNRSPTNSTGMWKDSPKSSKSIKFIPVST

Compound	IC50
Cc1cc(N2CC3(CN(C(=O)N4CCOc5cc(Cl)ccc54)C3)C2)ncc1C#N [1-29]	< 100 nM
O=C(N1CC2(C1)CN(c1ccc(C(F)(F)F)cn1)C2)N1CCOc2cc(Cl)ccc21 [1-31]	100 to 500 nM
O=C(N1CC2(C1)CN(c1cccc(CO)n1)C2)N1CCOc2cc(Cl)ccc21 [1-32]	100 to 500 nM
O=C(N1CC2(C1)CN(c1nccnc1F)C2)N1CCOc2cc(Cl)ccc21 [1-33]	< 100 nM
O=C(N1CC2(C1)CN(c1ccncc1)C2)N1CCOc2cc(Cl)ccc21 [1-34]	≥ 1000 nM
O=C(N1CC2(C1)CN(c1ccnc(OC(F)F)c1)C2)N1CCOc2cc(Cl)ccc21 [1-35]	≥ 1000 nM
Cc1cc(N2CC3(CN(C(=O)N4CCOc5cc(Cl)ccc54)C3)C2)ccn1 [1-36]	≥ 1000 nM
Cc1cnc(N2CC3(CN(C(=O)N4CCOc5cc(Cl)ccc54)C3)C2)nc1 [1-37]	100 to 500 nM
Cc1cc(C)nc(N2CC3(CN(C(=O)N4CCOc5cc(Cl)ccc54)C3)C2)n1 [1-38]	< 100 nM
O=C(N1CC2(C1)CN(c1ccc(F)cc1)C2)N1CCOc2cc(Cl)ccc21 [1-40]	100 to 500 nM
Cn1ccc2ncc(N3CC4(CN(C(=O)N5CCOc6cc(Cl)ccc65)C4)C3)cc21 [1-41]	100 to 500 nM
Cn1nccc1N1CC2(CN(C(=O)N3CCOc4cc(Cl)ccc43)C2)C1 [1-42]	100 to 500 nM
O=C(N1CC2(C1)CN(c1nccn3cncc13)C2)N1CCOc2cc(Cl)ccc21 [1-44]	< 100 nM
Cc1ccc(N2CC3(CN(C(=O)N4CCOc5cc(Cl)ccc54)C3)C2)nc1F [1-46]	< 100 nM
COc1ccnc(N2CC3(CN(C(=O)N4CCOc5cc(Cl)ccc54)C3)C2)n1 [1-47]	< 100 nM
COc1cnc(N2CC3(CN(C(=O)N4CCOc5cc(Cl)ccc54)C3)C2)nc1 [1-48]	100 to 500 nM
O=C(N1CC2(C1)CN(c1ncc(F)cc1F)C2)N1CCOc2cc(Cl)ccc21 [1-50]	< 100 nM
Cc1cc(F)cnc1N1CC2(CN(C(=O)N3CCOc4cc(Cl)ccc43)C2)C1 [1-52]	< 100 nM
Cn1ccnc1N1CC2(CN(C(=O)N3CCOc4cc(Cl)ccc43)C2)C1 [1-54]	100 to 500 nM
CCC1COc2cc(Cl)ccc2N1C(=O)N1CC2(C1)CN(c1ccc(F)cn1)C2 (centres unmarked) [1-55]	< 100 nM
CCC1COc2cc(F)ccc2N1C(=O)N1CC2(C1)CN(c1ccc(F)cn1)C2 (centres unmarked) [1-56]	< 100 nM

Compound	IC50
CC1COc2cc(Cl)ccc2N1C(=O)N1CC2(C1)CN(c1ncccc1F)C2 (centres unmarked) [1-57]	< 100 nM
CC1COc2cc(Cl)ccc2N1C(=O)N1CC2(C1)CN(c1cnccn1)C2 (centres unmarked) [1-58]	< 100 nM
COc1ccc2c(c1)OCC(C)N2C(=O)N1CC2(C1)CN(c1ccc(F)cn1)C2 (centres unmarked) [1-59]	< 100 nM
CC(C)(C)OC(=O)N1CC2(C1)CN(C(=O)N1CCOc3cc(Cl)ccc31)C2 [1-61]	500 to 1000 nM
CC1COc2cc(F)ccc2N1C(=O)N1CC2(C1)CN(c1cccnn1)C2 (centres unmarked) [1-62]	< 100 nM
O=C(N1CC2(C1)CN(c1ccc(F)cn1)C2)N1CCOc2ccccc21 [1-63]	100 to 500 nM
CC1COc2cc(F)ccc2N1C(=O)N1CC2(C1)CN(c1cnccn1)C2 (centres unmarked) [1-65]	< 100 nM
CC1COc2cc(F)ccc2N1C(=O)N1CC2(C1)CN(c1ccccn1)C2 (centres unmarked) [1-66]	< 100 nM
CC1COc2cc(Cl)ccc2N1C(=O)N1CC2(C1)CN(c1ccc(F)cn1)C2 (centres unmarked) [1-73]	< 100 nM
O=C(N1CC2(C1)CN(c1ccncn1)C2)N1CCOc2cc(Cl)ccc21 [1-74]	100 to 500 nM
O=C(N1CC2(C1)CN(c1ccc(F)cn1)C2)N1CCCS(=O)(=O)c2cc(Cl)ccc21 [1-75]	≥ 1000 nM
O=C(N1CC2(C1)CN(c1cc(C(F)F)ccn1)C2)N1CCOc2cc(Cl)ccc21 [1-80]	< 100 nM
O=C(N1CC2(C1)CN(c1n[nH]c3ccccc13)C2)N1CCOc2cc(Cl)ccc21 [1-82]	< 100 nM
O=C(N1CC2(CN(Cc3ccncc3)C2)C1)N1CCOc2cc(Cl)ccc21 [2-1, (7-chloro-2,3-dihydro-4H-benzo[b][1,4]oxazin-4-yl)(6-(pyridin-4-ylmethyl)-2,6-diazaspiro[3.3]heptan-2-yl)methanone]	≥ 1000 nM
O=C(N1CC2(CN(Cc3ccccn3)C2)C1)N1CCOc2cc(Cl)ccc21 [2-2]	≥ 1000 nM
O=C(N1CC2(CN(Cc3cccnc3)C2)C1)N1CCOc2cc(Cl)ccc21 [2-3]	≥ 1000 nM
CC(c1cccnc1)N1CC2(CN(C(=O)N3CCOc4cc(Cl)ccc43)C2)C1 (centres unmarked) [2-4]	≥ 1000 nM
O=C(N1CC2(CN(Cc3cnccn3)C2)C1)N1CCOc2cc(Cl)ccc21 [2-5]	≥ 1000 nM
O=C(N1CC2(CN(Cc3ccc(F)cn3)C2)C1)N1CCOc2cc(Cl)ccc21 [2-6]	≥ 1000 nM
Cc1cnnc(N2CC3(CN(C(=O)N4CCOc5cc(Cl)ccc54)C3)C2)c1 [3-1, (7-chloro-2,3-dihydro-4H-benzo[b][1,4]oxazin-4-yl)(6-(5-methylpyridazin-3-yl)-2,6-diazaspiro[3.3]heptan-2-yl)methanone]	< 100 nM
O=C(N1CC2(C1)CN(c1ccn3ccnc3c1)C2)N1CCOc2cc(Cl)ccc21 [5-1, (7-chloro-2,3-dihydro-4H-benzo[b][1,4]oxazin-4-yl)(6-(imidazo[1,2-a]pyridin-7-yl)-2,6-diazaspiro[3.3]heptan-2-yl)methanone formate]	100 to 500 nM

Continued, values first:

IC50	Compound
100 to 500 nM	Cc1nc(N2CC3(CN(C(=O)N4CCOc5cc(Cl)ccc54)C3)C2)no1 [7-1, (7-chloro-2,3-dihydro-4H-benzo[b][1,4]oxazin-4-yl)(6-(5-methyl-1,2,4-oxadiazol-3-yl)-2,6-diazaspiro[3.3]heptan-2-yl)methanone]
100 to 500 nM	COc1ccc(N2CC3(CN(C(=O)N4CCOc5cc(Cl)ccc54)C3)C2)cn1 [8-1, (7-chloro-2,3-dihydro-4H-benzo[b][1,4]oxazin-4-yl)(6-(6-methoxypyridin-3-yl)-2,6-diazaspiro[3.3]heptan-2-yl)methanone]
≥ 1000 nM	O=C(N1CC2(C1)CN(c1ccc(F)cn1)C2)N1CCOc2ncccc21 [8-5]
≥ 1000 nM	O=C(N1CC2(C1)CN(c1ccc(F)cn1)C2)N1CCOc2ccncc21 [8-6]
< 100 nM	CN1CCN(C(=O)N2CC3(C2)CN(c2ccc(F)cn2)C3)c2ccc(F)cc21 [8-8]
< 100 nM	CN1CCCN(C(=O)N2CC3(C2)CN(c2ccc(F)cn2)C3)c2ccc(F)cc21 [8-10]
< 100 nM	O=C(N1CC2(C1)CN(c1ccc(F)cn1)C2)N1CCSc2cc(Cl)ccc21 [8-15]
100 to 500 nM	O=C(N1CC2(C1)CN(c1ccc(F)cn1)C2)N1CCS(=O)(=O)c2cc(Cl)ccc21 [8-17]
< 100 nM	CC1CN(C(=O)N2CC3(C2)CN(c2ccc(F)cn2)C3)c2ccc(F)cc2O1 (centres unmarked) [9-4]
< 100 nM	O=C(N1CC2(C1)CN(c1ccc(F)cn1)C2)N1CCOc2c1ccc(F)c2F [9-5]
< 100 nM	O=C(N1CC2(C1)CN(c1ccc(F)cn1)C2)N1CCCc2cc(Cl)ccc21 [9-8]
< 100 nM	CC1(C)CCN(C(=O)N2CC3(C2)CN(c2ccc(F)cn2)C3)c2ccc(Cl)cc21 [9-9]
≥ 1000 nM	CS(=O)(=O)N1CC2(CN(C(=O)N3CCOc4cc(Cl)ccc43)C2)C1 [10-1, (7-chloro-2,3-dihydro-4H-benzo[b][1,4]oxazin-4-yl)(6-(methylsulfonyl)-2,6-diazaspiro[3.3]heptan-2-yl)methanone]
< 100 nM	O=C(N1CC2(C1)CN(c1ccccn1)C2)N1CCC(O)c2cc(Cl)ccc21 (centres unmarked) [13-2]
< 100 nM	O=C(N1CC2(C1)CN(c1ncccc1F)C2)N1CCC(O)c2cc(Cl)ccc21 (centres unmarked) [13-4]
< 100 nM	O=C(N1CC2(C1)CN(c1ccc(F)cn1)C2)N1CCC(O)c2c1ccc(Cl)c2F (centres unmarked) [13-5]
< 100 nM	CC1(O)CCN(C(=O)N2CC3(C2)CN(c2ccc(F)cn2)C3)c2ccc(Cl)cc21 (centres unmarked) [15-1, (6-chloro-4-hydroxy-4-methyl-3,4-dihydroquinolin-1(2H)-yl)(6-(5-fluoropyridin-2-yl)-2,6-diazaspiro[3.3]heptan-2-yl)methanone]
